Experimental data as given in ChEMBL document CHEMBL4219081, “Discovery of 1,2,3,4-tetrahydropyrimido[1,2-a]benzimidazoles as novel class of corticotropin releasing factor 1 receptor antagonists” (Bioorg Med Chem, 2018).
In brackets after ≈: the same amount, converted by molar mass.

Experiments:
[1] = Lipophilicity, log D of the compound at pH 7.4; assay type: physicochemical; settings: buffer
[2] = Solubility of the compound in JP2 buffer at pH 6.8 at 10 mmol/L; assay type: physicochemical
[3] = Oral bioavailability in rat at 1 mg/kg administered as cassette dose; assay type: ADME, organism-based; settings: in vivo
[4] = Kinetic solubility in PBS; assay type: physicochemical; settings: read-out: Kinetic_solubility
[5] = Oral bioavailability in rat at 5 mg/kg administered as cassette dose; assay type: ADME, organism-based; settings: in vivo

SMILES | logD [1] | solubility [2] [µg/mL] | bioavailability [3] [%] | solubility kinetic [4] [µg/mL] | bioavailability [5] [%]
CCC(c1ccc(Cl)c2nc3n(c12)CCCN3c1ccc(Cl)cc1Cl)n1ccnc1 (configuration not stated) | 3.53 |  |  |  | 
CCC(=O)c1ccc(Cl)c2nc3n(c12)CCCN3c1ccc(Cl)cc1Cl | 4.01 |  |  |  | 
CCN(CC)c1ccc(Cl)c2nc3n(c12)CCCN3c1ccc(Cl)cc1Cl | 5.25 | < 0.06 | 4.1 |  | 
CCC(OC)c1ccc(Cl)c2nc3n(c12)CCCN3c1ccc(Cl)cc1Cl (configuration not stated) | 4.38 |  |  |  | 
CCC(C#N)c1ccc(Cl)c2nc3n(c12)CCCN3c1ccc(Cl)cc1Cl (configuration not stated) | 3.69 |  |  |  | 
COc1nc(C)c(N2CCCn3c2nc2c(Cl)ccc([C@@H](OC(F)F)C(F)(F)F)c23)c(C)n1 | 3.18 |  |  | 55 (≈ 112 µM) | 68
CCC(O)c1ccc(Cl)c2nc3n(c12)CCCN3c1ccc(Cl)cc1Cl (configuration not stated) | 3.57 |  |  |  | 
COc1nc(C)nc(OC)c1N1CCCn2c1nc1c(Cl)ccc(C(OC(F)F)C(F)(F)F)c12 (racemic) | 3.71 | 14 (≈ 27.6 µM) |  |  | 
CCc1nc(C)c(N2CCCn3c2nc2c(Cl)ccc(C(OC(F)F)C(F)(F)F)c23)c(C)n1 (racemic) | 3.21 | 37 (≈ 75.5 µM) |  |  | 
COc1ccc(N2CCCn3c2nc2c(Cl)ccc(C(OC(F)F)C(F)(F)F)c23)c(C)n1 (racemic) | 3.43 | 17 (≈ 35.7 µM) |  |  | 
COc1nc(C)c(N2CCCn3c2nc2c(Cl)ccc(C(OC(F)F)C(F)(F)F)c23)c(C)n1 (racemic) | 3.08 | 54 (≈ 110 µM) |  |  | 
Cc1nc(C)c(N2CCCn3c2nc2c(Cl)ccc(C(OC(F)F)C(F)(F)F)c23)c(C)n1 (racemic) | 2.87 | 71 (≈ 149 µM) |  |  | 
CCc1nc(C)nc(CC)c1N1CCCn2c1nc1c(Cl)ccc(C(OC(F)F)C(F)(F)F)c12 (racemic) | 3.52 | 46 (≈ 91.3 µM) |  |  | 
FC(F)OC(c1ccc(Cl)c2nc3n(c12)CCCN3c1ccc(Cl)cc1Cl)C(F)(F)F (racemic) | 4.3 | < 0.09 |  |  | 
COc1ccc(N2CCCn3c2nc2c(Cl)ccc(C(OC(F)F)C(F)(F)F)c23)c(C)c1 (racemic) | 3.76 | 1.5 (≈ 3.15 µM) |  |  | 
